Data as given in article PMC2628638, “Catalytic inhibition of topoisomerase II by a novel rationally designed ATP-competitive purine analogue” (BMC Chemical Biology, 2009).

How the values were obtained:
[1] = tested on: topoisomerase II from nuclear extracts of HL-60 cells; test: DNA decatenation assay with HL-60 nuclear extracts (kDNA); assay type: biochemical, human; conditions: catenated kDNA, 450 μM ATP, read-out: mean IC50, inhibition of DNA decatenation
Description: (§1) Reagents for the assay were purchased from TopoGEN (catalog number 1001–1, TopoGEN, Inc., Port Orange, FL). Topoisomerase II was extracted according to the manufacturer's instructions from nuclei of HL-60 cells (ATCC; American Type Culture Collection, Manassas, Virginia, USA) and contained both isoforms as assessed by Western blotting. Calculation of specific topoisomerase II decatenation activity was based on complete decatenation of a given amount of catenated input DNA (100 ng kDNA) by a defined amount of nuclear extract containing the alpha and beta isoforms or of a defined amount of purified enzyme in a particular amount of time. The topoisomerase II activity from nuclei decatenated 0.07 ng catenated kDNA · min^-1 · ng^-1 extract. Purified topoisomerase II alpha (see above) decatenated 0.13 ng catenated kDNA · min^-1 · ng^-1. Vehicle (DMSO) or drug substance at concentrations to yield the desired end concentrations were added and samples were preincubated for 5 minutes at 37°C and 400 rpm in an Eppendorf thermomixer. Reactions were started by adding ATP (to 450 μM final concentration) to each sample and incubation was continued for 20 minutes. […] Gels were analyzed under a UV transilluminator and decatenated kDNA products were quantified using AlphaEaseFC (FluorChem 8900) image analysis software version 3.2.3 (Alpha Innotech, San Leandro, CA).

[2] = target: T1, purified human topoisomerase II alpha (Homo sapiens, UniProt P11388); test: DNA decatenation assay with purified enzyme (kDNA); assay type: biochemical; conditions: catenated kDNA, read-out: mean IC50, inhibition of DNA decatenation
T1 construct: screened in an ATPase assay using purified full length tagged human topoisomerase II alpha; made in house; host or cells: Sf21 insect cells, baculovirus (pFastBac1)
T1 sequence (P11388 whole entry): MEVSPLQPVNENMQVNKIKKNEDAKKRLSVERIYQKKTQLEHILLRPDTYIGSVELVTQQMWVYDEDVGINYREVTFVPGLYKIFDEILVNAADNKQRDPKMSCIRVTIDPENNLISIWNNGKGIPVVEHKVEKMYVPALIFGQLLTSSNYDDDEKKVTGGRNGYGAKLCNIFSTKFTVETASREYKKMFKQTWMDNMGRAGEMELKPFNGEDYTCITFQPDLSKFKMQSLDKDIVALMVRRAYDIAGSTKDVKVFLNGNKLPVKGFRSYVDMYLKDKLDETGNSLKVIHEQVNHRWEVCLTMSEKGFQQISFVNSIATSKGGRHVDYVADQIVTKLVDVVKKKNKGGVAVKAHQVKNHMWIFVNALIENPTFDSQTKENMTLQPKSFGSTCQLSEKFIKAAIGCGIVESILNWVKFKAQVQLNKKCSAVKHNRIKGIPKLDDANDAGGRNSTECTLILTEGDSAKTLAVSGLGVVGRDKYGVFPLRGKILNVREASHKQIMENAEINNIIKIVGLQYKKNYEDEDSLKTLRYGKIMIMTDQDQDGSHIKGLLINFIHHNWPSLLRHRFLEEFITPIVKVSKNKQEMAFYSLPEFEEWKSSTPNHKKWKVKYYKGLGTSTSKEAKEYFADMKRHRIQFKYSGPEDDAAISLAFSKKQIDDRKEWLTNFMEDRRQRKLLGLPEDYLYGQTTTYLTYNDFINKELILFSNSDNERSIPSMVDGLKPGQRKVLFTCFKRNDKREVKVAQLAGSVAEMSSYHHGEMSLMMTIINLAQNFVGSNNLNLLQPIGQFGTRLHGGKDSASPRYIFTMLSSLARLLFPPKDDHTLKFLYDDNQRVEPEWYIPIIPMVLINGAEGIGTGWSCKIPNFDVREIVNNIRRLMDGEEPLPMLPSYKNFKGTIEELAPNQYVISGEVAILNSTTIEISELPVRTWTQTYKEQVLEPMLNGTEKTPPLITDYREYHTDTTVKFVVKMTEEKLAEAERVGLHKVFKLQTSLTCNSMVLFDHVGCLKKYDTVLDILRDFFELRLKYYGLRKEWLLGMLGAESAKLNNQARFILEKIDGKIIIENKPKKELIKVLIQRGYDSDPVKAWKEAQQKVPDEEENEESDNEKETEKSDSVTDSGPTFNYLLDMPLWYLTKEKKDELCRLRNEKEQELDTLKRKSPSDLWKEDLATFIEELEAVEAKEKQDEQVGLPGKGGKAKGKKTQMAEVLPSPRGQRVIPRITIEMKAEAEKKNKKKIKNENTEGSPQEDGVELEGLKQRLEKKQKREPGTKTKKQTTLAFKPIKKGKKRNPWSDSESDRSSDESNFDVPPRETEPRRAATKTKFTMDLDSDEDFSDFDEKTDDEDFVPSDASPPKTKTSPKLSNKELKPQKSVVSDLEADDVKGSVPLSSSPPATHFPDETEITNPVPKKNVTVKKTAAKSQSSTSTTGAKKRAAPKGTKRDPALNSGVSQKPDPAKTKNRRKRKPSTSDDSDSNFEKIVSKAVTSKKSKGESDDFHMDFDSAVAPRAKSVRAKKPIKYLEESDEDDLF
Description: as §1

[3] = tested on: panel of serine/threonine/tyrosine protein kinases; test: Kinase selectivity profiling, standard panel of kinases; assay type: biochemical; conditions: in vitro, versus topoisomerase II
Source text: Based on homology structural models of the target, a purine scaffold was designed interactively using the Macromodel modeling software. The designed purine scaffold was subsequently used as a substructure query to search the Novartis compound collection. Around 50 molecules were retrieved in this manner and screened in an ATPase assay using purified full length tagged human topoisomerase II alpha. […] Subsequently, we carried out kinetic analysis with QAP 1 in order to corroborate the mode of action. […] The data were analyzed by non-linear regression analysis using the equations corresponding to competitive, uncompetitive, and mixed inhibition (see Methods) and a statistical analysis (F-test; p ≤ 0.05) was carried out to identify the best model. […] A linearized representation (Eady-Hofstee) of one of these experiments is depicted in Figure 1D. To confirm the mode of action of QAP 1, inhibition studies were also carried out in the presence of different concentration of the inhibitor at different ATP concentrations and the IC50 values were determined. […] Next, QAP 1 was tested against a panel of kinases in a radiometric assay. With the exception of subtle inhibition of the Ret and c-Src tyrosine kinases no effect of the compound was observed on other kinases in the panel, even at the highest concentration tested (Table 1). […]

[4] = target: IGF-1R (Homo sapiens, UniProt P08069); test: Radiometric filter binding kinase assay; assay type: biochemical
Sequence of IGF-1R (P08069 31-1367, species assumed): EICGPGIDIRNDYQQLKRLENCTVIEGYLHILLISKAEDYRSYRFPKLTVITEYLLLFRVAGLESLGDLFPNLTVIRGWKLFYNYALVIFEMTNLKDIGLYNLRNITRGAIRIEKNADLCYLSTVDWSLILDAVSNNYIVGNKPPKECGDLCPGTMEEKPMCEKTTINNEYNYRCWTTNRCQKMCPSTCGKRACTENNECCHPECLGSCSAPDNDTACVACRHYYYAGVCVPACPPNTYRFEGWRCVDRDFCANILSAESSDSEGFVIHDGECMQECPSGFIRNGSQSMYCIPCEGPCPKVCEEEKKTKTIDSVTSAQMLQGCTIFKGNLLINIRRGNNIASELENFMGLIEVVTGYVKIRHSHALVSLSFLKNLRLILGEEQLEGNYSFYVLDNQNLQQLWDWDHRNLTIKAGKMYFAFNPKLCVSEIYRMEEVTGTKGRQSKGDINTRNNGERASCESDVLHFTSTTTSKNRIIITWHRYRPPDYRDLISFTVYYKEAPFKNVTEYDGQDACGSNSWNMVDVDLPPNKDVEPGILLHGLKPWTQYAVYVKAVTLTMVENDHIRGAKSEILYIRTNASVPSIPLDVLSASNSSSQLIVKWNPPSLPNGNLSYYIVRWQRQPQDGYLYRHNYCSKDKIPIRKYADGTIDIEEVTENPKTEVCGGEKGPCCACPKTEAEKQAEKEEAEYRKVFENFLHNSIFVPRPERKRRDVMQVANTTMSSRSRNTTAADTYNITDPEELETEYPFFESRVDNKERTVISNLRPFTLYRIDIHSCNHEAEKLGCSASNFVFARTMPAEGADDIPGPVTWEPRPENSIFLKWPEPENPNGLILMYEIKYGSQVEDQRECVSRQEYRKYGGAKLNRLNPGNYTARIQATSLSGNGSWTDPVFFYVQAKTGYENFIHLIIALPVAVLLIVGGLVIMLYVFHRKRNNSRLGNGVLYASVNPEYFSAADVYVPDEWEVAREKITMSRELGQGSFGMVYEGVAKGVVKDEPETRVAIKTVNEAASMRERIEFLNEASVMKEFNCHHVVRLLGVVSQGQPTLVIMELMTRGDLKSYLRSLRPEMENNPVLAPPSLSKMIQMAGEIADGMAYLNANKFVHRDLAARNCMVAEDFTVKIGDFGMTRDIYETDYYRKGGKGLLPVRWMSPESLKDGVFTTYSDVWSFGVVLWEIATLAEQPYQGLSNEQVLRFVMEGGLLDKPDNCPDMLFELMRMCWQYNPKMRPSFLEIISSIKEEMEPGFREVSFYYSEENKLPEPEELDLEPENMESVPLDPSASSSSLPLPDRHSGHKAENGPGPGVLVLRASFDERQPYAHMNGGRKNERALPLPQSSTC
Source text: (§2) Based on homology structural models of the target, a purine scaffold was designed interactively using the Macromodel modeling software. The designed purine scaffold was subsequently used as a substructure query to search the Novartis compound collection. Around 50 molecules were retrieved in this manner and screened in an ATPase assay using purified full length tagged human topoisomerase II alpha. […] Subsequently, we carried out kinetic analysis with QAP 1 in order to corroborate the mode of action. […] The data were analyzed by non-linear regression analysis using the equations corresponding to competitive, uncompetitive, and mixed inhibition (see Methods) and a statistical analysis (F-test; p ≤ 0.05) was carried out to identify the best model. […] A linearized representation (Eady-Hofstee) of one of these experiments is depicted in Figure 1D. To confirm the mode of action of QAP 1, inhibition studies were also carried out in the presence of different concentration of the inhibitor at different ATP concentrations and the IC50 values were determined. […] Next, QAP 1 was tested against a panel of kinases in a radiometric assay. With the exception of subtle inhibition of the Ret and c-Src tyrosine kinases no effect of the compound was observed on other kinases in the panel, even at the highest concentration tested (Table 1). Thus, QAP 1 is a relatively potent inhibitor of topoisomerase II ATPase function with fairly good selectivity over various serine/threonine/tyrosine protein kinases. To test if QAP 1 inhibited topoisomerase II DNA strand passage activity, nuclear extracts of HL-60 leukemic cells were incubated with catenated kDNA in the presence of increasing concentrations of QAP 1.

[5] = target: Tek (Homo sapiens, UniProt Q02763); test: Radiometric filter binding kinase assay; assay type: biochemical
Sequence of Tek (Q02763 23-1124, species assumed): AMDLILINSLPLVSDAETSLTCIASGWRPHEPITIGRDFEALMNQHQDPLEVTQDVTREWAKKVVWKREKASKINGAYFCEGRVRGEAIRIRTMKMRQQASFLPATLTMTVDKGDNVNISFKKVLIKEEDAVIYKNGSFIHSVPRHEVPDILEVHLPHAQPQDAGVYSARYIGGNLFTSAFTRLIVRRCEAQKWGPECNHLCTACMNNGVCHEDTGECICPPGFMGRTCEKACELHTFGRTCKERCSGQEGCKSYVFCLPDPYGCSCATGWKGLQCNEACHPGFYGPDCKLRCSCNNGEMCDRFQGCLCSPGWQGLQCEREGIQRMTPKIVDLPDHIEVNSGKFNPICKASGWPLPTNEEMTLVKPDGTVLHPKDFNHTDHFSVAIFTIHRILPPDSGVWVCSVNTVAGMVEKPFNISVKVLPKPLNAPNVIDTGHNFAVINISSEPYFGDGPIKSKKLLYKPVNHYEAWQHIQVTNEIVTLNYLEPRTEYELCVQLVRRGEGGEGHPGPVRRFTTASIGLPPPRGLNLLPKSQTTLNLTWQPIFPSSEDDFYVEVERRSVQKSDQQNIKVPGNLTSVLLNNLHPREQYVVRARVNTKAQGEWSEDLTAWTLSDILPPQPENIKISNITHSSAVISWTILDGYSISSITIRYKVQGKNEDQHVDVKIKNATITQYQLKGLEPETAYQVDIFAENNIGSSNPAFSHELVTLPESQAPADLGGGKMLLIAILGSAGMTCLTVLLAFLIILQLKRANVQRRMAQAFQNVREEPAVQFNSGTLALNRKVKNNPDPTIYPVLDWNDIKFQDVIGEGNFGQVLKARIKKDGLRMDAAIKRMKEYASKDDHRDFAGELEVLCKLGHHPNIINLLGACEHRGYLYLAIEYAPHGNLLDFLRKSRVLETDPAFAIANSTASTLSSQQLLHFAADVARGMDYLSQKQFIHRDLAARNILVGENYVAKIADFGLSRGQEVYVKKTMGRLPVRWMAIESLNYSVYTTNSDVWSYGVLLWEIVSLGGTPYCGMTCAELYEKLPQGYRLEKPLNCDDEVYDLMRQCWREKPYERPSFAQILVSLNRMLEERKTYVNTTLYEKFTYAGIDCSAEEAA
Source text: as §2

[6] = target: topoisomerase II alpha (Homo sapiens, UniProt P11388); test: DNA-dependent ATPase assay (malachite green); assay type: biochemical; set-up: screened in an ATPase assay using purified full length tagged human topoisomerase II alpha; made in house; host or cells: Sf21 insect cells, baculovirus (pFastBac1)
Sequence of topoisomerase II alpha (P11388 whole entry): as the sequence (P11388 whole entry) above
Description: DNA-dependent ATP hydrolysis of human topoisomerase II α was monitored by measuring the production of inorganic phosphate using acidic molybdate and malachite green. Specific ATPase activity of every batch was tested in a time-course to determine optimal incubation times and enzyme concentrations within the linear range of the assay. Reactions thus contained 10 – 40 nM topoisomerase II (dimer concentration) in reaction buffer (10 mM Tris HCl pH 7.5, 175 mM KCl, 0.1 mM EDTA, 5 mM MgCl2, 2 mM DTT, 2.5% glycerol and 1.7 nM supercoiled pUC18). The specific activity of the human topoisomerase II α enzyme measured in the ATPase assay was 0.24 μmol PO4·min^-1·mg^-1. […] Compounds at the indicated concentrations were added as serial dilutions prepared in DMSO and preincubated for 10 minutes at 37°C on an orbital shaker. Reactions were started by the addition of 400 μM ATP (Sigma, catalog number A2383) and allowed to proceed for 30 minutes. Reactions were terminated by the addition of 200 μl malachite green reagent and the OD was read immediately at 630 nm on a SpectraMax Plus microtiter plate reader using SoftMax Pro software (Molecular Devices). For kinetic analysis, reactions were carried out in duplicate as described above either in the presence of vehicle (DMSO) or QAP 1. Following a preincubation for 5 minutes, ATP was added at the indicated concentrations to start the reactions, which were allowed to proceed for 17 minutes before stopping and reading as above. From these values the OD values obtained at each respective ATP concentration without enzyme were subtracted for background correction. […] A compromise was found by carrying out the competition experiments with a single concentration of the inhibitor that gave a good inhibition of enzyme activity while keeping a measurable signal. The equations used to fit these experiments are: […]
Each competition experiment was fitted (Grafit version 5.04 – Erithacus Software) with these 3 equations and the models that gave unrealistic inhibition constants (above 10 mM) and/or large standard errors (similar to the value of the fitted parameter) were rejected. Then, the F-test was carried out to identify the best fitting model. An alternative method was used to determine the mode of action of the inhibitor. Dose-response experiments were carried out at different ATP concentrations and the corresponding IC50s determined. According to the Cheng-Prusoff equation for linear competitive inhibition: […]
The IC50 of a competitive inhibitive inhibitor should increase in a linear fashion with the concentration of ATP. The measured IC50s were then plotted in function of the ATP concentrations and linear regression analyses were carried out. […] Mean Km and Vmax values were calculated from two independent experiments.

## CCc1nc2nc(Nc3ccc4nc(OCCN5CCOCC5)ccc4c3)nc(NC(C)(C)C)c2[nH]1 [QAP 1]
[1]
  IC50: 770 nM
[2]
  IC50: 660 nM
[3]
  selectivity over a standard panel of kinases: greater than 10 fold
[4]
  IC50: > 10000 nM
[5]
  IC50: > 10000 nM
[6]; full length tagged human topoisomerase II alpha, 400 μM ATP
  IC50: 128 ± 21 nM
[6]; non-linear regression, competitive vs uncompetitive vs mixed models
  mode of inhibition (kinetic analysis, F-test): ATP-competitive inhibitor
